{"source": "paper PMC8568920", "about": "“Serum apolipoprotein A-I potentiates the therapeutic efficacy of lysocin E against Staphylococcus aureus” (Nature Communications, 2021)", "key": {"S. aureus RN4220 [1]": {"test_system": "S. aureus RN4220", "test": "Direct antimicrobial activity of ApoA-I and ApoA-II", "format": "cell-based, Staphylococcus aureus", "details": "up to 300 or 600 µg ml^−1; purified bovine and human proteins", "procedure": "(§1) The antimicrobial activities of the compounds were measured using the microdilution method. Measurement of the bactericidal activity of lysocin E (0.25 µg ml^−1) and nisin (2 µg ml^−1) with or without ApoA-I was performed according to the National Committee for Clinical Laboratory Standards method. […] For the ∆menA and ∆menB strains, TSB medium was used instead of cation-adjusted-Mueller Hinton broth (CA-MHB) in the microdilution method. Sera and ApoA-I, II were added to the bacterial culture before distributing them into 96-well plates. ApoA-I and ApoA-II antimicrobial activity were evaluated using the RN4220 strain. The protein binding rate of lysocin E against human plasma was determined by a rapid equilibrium dialysis device (Thermo Fisher Scientific, Waltham, MA, USA) according to the manufacturer’s instructions."}, "MRSA": {"test_system": "MRSA", "test": "microbe, parasite or virus in culture", "details": "for MIC: Staphylococcus aureus", "procedure": "as §1"}, "MRSA MR6 strain": {"test_system": "MRSA MR6 strain", "test": "Mouse systemic MRSA infection model, survival ED50", "format": "in vivo", "details": "ICR female mice; MRSA MR6 i.p. 5.7 × 10^7 CFU in mucin; s.c. at 1 h and 6 h after infection; survival after 5 days; 5 animals/group; logistic regression", "procedure": "Mouse protocols followed the Regulations for Animal Care and Use of the University of Tokyo under approval by the Graduate School of Pharmaceutical Science at the University of Tokyo (approval nos. 24–55). Mice were housed in a group of at most five in a cage, kept in a room maintained at 23–24 °C, 55% humidity, and 12 h light/12 h dark cycle. For Table 1, clinically isolated MRSA MR6 strain[47] was cultured overnight, suspended in 7% type II porcine stomach mucin supplemented with 0.2 mM FeNH4-citrate and intraperitoneally administered to mice (ICR, female, 4 weeks of age) at 5.7 × 10^7 colony-forming units. Lysocin E (4–0.25 mg kg^−1), vancomycin (8–0.5 mg kg^−1), linezolid (8–0.5 mg kg^−1), or daptomycin (4–0.25 mg kg^−1) were administered subcutaneously to 5 animals/group at 1 h and 6 h after infection. Mouse survival was assessed after 5 days and ED50 values were calculated by multiple logistic regression analysis. For Fig. 1d, the Newman strain was cultured in TSB overnight and cells (4.0 × 10^7 colony-forming units) were washed in phosphate-buffered saline (PBS) were injected into the tail vein of 8–12-week-old female C57BL/6J wild-type mice or Apoa1 homozygous-deficient mice. After 2 h, lysocin E (0.5 mg kg^−1) was administered subcutaneously. After 24 h, the kidneys were harvested and crushed with a BioMasher II (Nippi Incorporated, Tokyo, Japan). The suspensions were diluted with PBS(−), plated on TSB agar medium and the number of colonies was counted."}, "S. aureus RN4220 [2]": {"test_system": "S. aureus RN4220", "details": "RN4220; for MIC, Control: no rhApoA-I; for MIC +rhApoA-I relative to control (fold) / MIC, +rhApoA-I 25µg ml-1: rhApoA-I 25 µg ml-1", "procedure": "as §1"}, "[3]": {"details": "cited from earlier work"}, "S. aureus": {"test_system": "S. aureus", "test": "Lysocin E antimicrobial activity-enhancing activity (1 unit decreases the MIC of lysocin E to 1 µg ml−1)", "format": "cell-based, Staphylococcus aureus", "details": "ApoA species", "procedure": "Calf serum (10 ml) was added to 15 ml EtOH (60% v/v) and the mixture was centrifuged for 15 min. The collected supernatant was evaporated and suspended in 8 ml Milli-Q water (fraction [fr.] II). Fr. II with formic acid (0.1%) was applied to 10 ml of ODS resin (Waters Corporation, Milford, MA, USA). After washing with 25% EtOH and then 50% EtOH, the resin was eluted with 75% EtOH containing 0.1% formic acid. The eluted sample was evaporated and dissolved in 0.8 ml buffer A (10 mM phosphate buffer [pH 7.1], 6 M urea; Fr. III). Fr. III was applied to the Superose 12 10/300 GL gel filtration column (GE Healthcare) and eluted with the AKTApurifier system (GE Healthcare). The elution was performed in buffer A at a flow rate of 0.5 ml min^−1 and 60 fractions (0.5 ml per fr.) were collected in 2-ml tubes. All fractions, except for Fr. I, were dialysed in 10 mM phosphate buffer (pH 7.1) before assessment of their activities. Protein concentrations were measured using Coomassie Plus^TM protein assay reagent (Thermo Fisher) with bovine serum albumin as the standard. Amino acid sequence analysis was performed by in-gel digestion and mass spectrometric analysis. One unit was defined as the activity that decreases the MIC of lysocin E to 1 µg ml^−1."}}, "note": "Where two headings read alike, the source gives them in different places.", "data": [{"compound": "ApoA-II: purified bovine and human apolipoprotein A-II", "values": [{"measurement": "Inhibition of S. aureus growth by the protein alone", "setting": "S. aureus RN4220 [1]", "result": "did not inhibit S. aureus growth"}]}, {"compound": "CCCCCCCCCC(=O)N[C@@H](Cc1c[nH]c2ccccc12)C(=O)N[C@H](CC(N)=O)C(=O)N[C@@H](CC(=O)O)C(=O)N[C@@H]1C(=O)NCC(=O)N[C@@H](CCCN)C(=O)N[C@@H](CC(=O)O)C(=O)N[C@H](C)C(=O)N[C@@H](CC(=O)O)C(=O)NCC(=O)N[C@H](CO)C(=O)N[C@@H]([C@H](C)CC(=O)O)C(=O)N[C@@H](CC(=O)c2ccccc2N)C(=O)O[C@@H]1C", "note": "[Daptomycin, daptomycin]", "values": [{"measurement": "Antimicrobial activity (MIC)", "setting": "MRSA", "result": 0.5, "unit": "µg/mL"}, {"measurement": "MIC in 10% bovine serum", "setting": "MRSA", "result": 1, "unit": "µg/mL"}, {"measurement": "Therapeutic effect (ED50)", "setting": "MRSA MR6 strain", "result": 0.73, "unit": "mg/kg"}, {"measurement": "MIC, Control", "setting": "S. aureus RN4220 [2]", "result": 0.5, "unit": "µg/mL"}, {"measurement": "MIC +rhApoA-I relative to control (fold)", "setting": "S. aureus RN4220 [2]", "result": "1/1"}, {"measurement": "MIC, +rhApoA-I 25µg ml-1", "setting": "S. aureus RN4220 [2]", "result": 0.5, "unit": "µg/mL"}, {"measurement": "Protein binding (%, human plasma)", "setting": "[3]; human plasma", "result": "90–96[52] %"}]}, {"compound": "hApoA-II: purified human ApoA-II (Calbiochem)", "values": [{"measurement": "Specific activity for lysocin E antimicrobial enhancing activity", "setting": "S. aureus", "result": 5900, "unit": "unit mg-1 protein"}]}, {"compound": "rhApoA-I: recombinant human ApoA-I", "values": [{"measurement": "Specific activity for lysocin E antimicrobial enhancing activity", "setting": "S. aureus", "result": 6500, "unit": "unit mg-1 protein"}]}, {"compound": "CC(=O)NC[C@H]1CN(c2ccc(N3CCOCC3)c(F)c2)C(=O)O1", "note": "[Linezolid, linezolid]", "values": [{"measurement": "MIC", "setting": "MRSA; MRSA, read-out: Antimicrobial activity (MIC)", "result": 2, "unit": "µg/mL"}, {"measurement": "MIC", "setting": "MRSA; MRSA, read-out: MIC in 10% bovine serum", "result": 2, "unit": "µg/mL"}, {"measurement": "Therapeutic effect (ED50)", "setting": "MRSA MR6 strain", "result": 3.8, "unit": "mg/kg"}, {"measurement": "Protein binding (%, human plasma)", "setting": "[3]; human", "result": "18[52] %"}]}, {"compound": "CN[C@H](CC(C)C)C(=O)N[C@H]1C(=O)N[C@@H](CC(N)=O)C(=O)N[C@H]2C(=O)N[C@H]3C(=O)N[C@H](C(=O)N[C@H](C(=O)O)c4cc(O)cc(O)c4-c4cc3ccc4O)[C@H](O)c3ccc(c(Cl)c3)Oc3cc2cc(c3O[C@@H]2O[C@H](CO)[C@@H](O)[C@H](O)[C@H]2O[C@H]2C[C@](C)(N)[C@H](O)[C@H](C)O2)Oc2ccc(cc2Cl)[C@H]1O", "note": "[Vancomycin, vancomycin]", "values": [{"measurement": "MIC in 10% bovine serum", "setting": "MRSA; MRSA, 10% bovine serum in medium", "result": 1, "unit": "µg/mL"}, {"measurement": "Antimicrobial activity (MIC)", "setting": "MRSA; MRSA, microdilution, no serum", "result": 1, "unit": "µg/mL"}, {"measurement": "Therapeutic effect (ED50)", "setting": "MRSA MR6 strain", "result": 4.2, "unit": "mg/kg"}, {"measurement": "MIC, Control", "setting": "S. aureus RN4220 [2]", "result": 1, "unit": "µg/mL"}, {"measurement": "MIC +rhApoA-I relative to control (fold)", "setting": "S. aureus RN4220 [2]", "result": "1/1"}, {"measurement": "MIC, +rhApoA-I 25µg ml-1", "setting": "S. aureus RN4220 [2]", "result": 1, "unit": "µg/mL"}, {"measurement": "Protein binding (%, human plasma)", "setting": "[3]; human plasma", "result": "10–50[51] %"}]}, {"compound": "ApoA-I: purified bovine and human apolipoprotein A-I", "values": [{"measurement": "Inhibition of S. aureus growth by the protein alone", "setting": "S. aureus RN4220 [1]", "result": "did not inhibit S. aureus growth"}]}]}
